This note sets out measurements from PubChem BioAssay (NCI).

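Following 48 hours of exposure in 96-well plates, responses at five concentrations were used to interpolate endpoints linearly. TGI: concentration producing complete growth inhibition.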

Among the test systems are 786-0 renal; A498 renal; DU-145 prostate; HL-60(TB) leukemia; HT29 colon; IGROV1 ovarian; KM12 colon; MDA-MB-435; MOLT-4 leukemia; NCI/ADR-RES ovarian; OVCAR-3 ovarian; RPMI-8226 leukemia; RXF 393 renal; SK-MEL-28 melanoma; SK-MEL-5 melanoma; SNB-19 CNS; UACC-257 melanoma.
Assay in all cases: DTP human tumour cell line panel, 48 h

In the case of `CCOC(=O)C1=C(C(=O)OCC)SC2(S1)C(C(=O)OCC)=C(C(=O)OCC)Sc1c2ssc1=O`, the TGI is 2.13 µM in the assay with 786-0 renal; 12.8 µM in the assay on A498 renal; 2.2 µM with DU-145 prostate; 1.06 µM with HL-60(TB) leukemia; 3.75 µM in the assay on HT29 colon; 2.57 µM in the assay on IGROV1 ovarian. Moreover, the TGI in the assay with KM12 colon is 10.3 µM; with MDA-MB-435 it was 3.93 µM; in the assay on MOLT-4 leukemia, 2.14 µM; in the assay on NCI/ADR-RES ovarian it was 7.64 µM; with OVCAR-3 ovarian it was 3.16 µM; in the assay with RPMI-8226 leukemia, 4.56 µM. The TGI in the assay with RXF 393 renal is 2.47 µM; in the assay with SK-MEL-28 melanoma, 3.93 µM; in the assay with SK-MEL-5 melanoma, 5.29 µM; in the assay with SNB-19 CNS, 15.4 µM; in the assay with UACC-257 melanoma, 3.1 µM.
